# Assay results published in patent publication US20150184246A1, “BIOMARKERS OF RESPONSE TO PROTEASOME INHIBITORS” (Millennium Pharmaceuticals, Inc., priority 2011, published 2015).
# Structures can show the parent of a compound that is named as a salt. Where two headings read alike, the source gives them in different places.
# Key:
# [1] = test system: hematological and solid tumor xenograft models; details: range of hematological and solid tumor xenograft models; cited from earlier work
# [2] = test system: multiple myeloma patients (t(4;14) / NRAS status of tumor); assay: t(4;14) and NRAS status versus response in patients with tumor subtype data; format: in vivo, human
# Description: Table 12 details the t(4;14) and NRAS status of the current dataset for patients both with tumor subtype data (Mulligan et al. (2007) Blood 109:3177-3188) and who were response-evaluable (n=40).
# [3] = test system: t(4;14) translocation in MM; details: bortezomib alone or in combination; cited from earlier work
# [4] = test system: multiple myeloma patients (NRAS / KRAS status of tumor); assay: Pharmacogenomic analysis: pre-treatment NRAS/KRAS mutation status versus response, time-to-progression and overall survival; format: in vivo, human
# Description: Patient samples and response criteria from patients participating in these studies, as well as the following additional studies described below were sought for use in pharmacogenomic analyses to identify markers associated with patient survival. […] The bone marrow aspirates were collected prior to the patient's treatment in the studies. […] Dexamethasone is a synthetic adrenocorticosteroid, CAS Registry No. […], administered as tablets (DECADRON® Merck & Co., Inc.). The trials are described in the following paragraphs.
# Upon collection of patient bone marrow aspirate, the myeloma cells were enriched via rapid negative selection. The enrichment procedure employs a cocktail of cell-type specific antibodies coupled with an antibody that binds red blood cells RosetteSep (Stem Cell Technologies). The antibody cocktail has antibodies with the following specificity: CD14 (monocytes), CD2 (T and NK cells), CD33 (myeloid progenitors and monocytes), CD41 (platelets and megakaryocytes), CD45RA (naïve B and T cells) and CD66b (granulocytes). The antibodies cross-linked the non-myeloma cell types to the red blood cells in the samples. The bound cell types were removed using a modified ficoll density gradient. Myeloma cells were then collected and frozen. In the international studies, the first two samples from each site were collected and subjected to RNA isolation so that feedback on quantity and quality could be provided; ultimately Phase 2 and 3 trials provided a similar percentage of informative samples. Control bone marrow plasma cell samples were obtained from normal donors (AllCells, Berkeley, Calif.).
# Flow through from the RNEASY® column was clarified by centrifugation, then concentrated about 10-fold with centrifugal ultrafilters (MICROCON® centrifugal filter device, YM-30 membrane (30 kDa limit), Millipore Corp. Billerica, Mass.). Impurities were removed using the Qiagen QIAMP® DNA Micro Kit. DNA from the sample was amplified using the Qiagen REPLI-G® WGA kit. Mutation status of DNA from 133 bone marrow tumor biopsies was determined by testing a panel of cancer genes and known tumor suppressors using the Sequenom (San Diego, Calif.) mass spectrometry genotype analysis system.
# Rather, the platform interrogated tumor DNA only for specific sequences that were previously implicated in cancer (i.e. ‘hotspot’ mutations), relying largely on the prior knowledge that these are highly relevant in human cancer. The panel of mutations evaluated consisted of the ONCOCARTA™ version 1.0 and custom assays designed in collaboration with Sequenom and Millennium to expand the list of mutations surveyed to 514 known mutations in 41 oncogenes and tumor suppressor genes. Table 5 lists genes with mutations included in the panel and the number in parentheses 0 indicates the approximate number of mutations targeted in assays of the genes.
# The custom assays were designed using TYPEPLEX® chemistry with single-base extension which determines the expected mass weight of the extend products to ensure separation between all potential peaks found within a multiplexed reaction. 15 nl of amplified and extended product is spotted on a 384 SpectroCHIP II using a Nanodispenser. A 3-point calibrant is added to every chip to ensure proper performance of the Sequenom Maldi-tof compact mass spectrometer. The SpectroCHIP II is placed in the Sequenom MALDI-TOF compact mass spectrometer. The mass spectrometer is set to fire a maximum of 9 acquisitions for each spot on the 384 well SpectroCHIP. TypePLEX Gold kit SpectroCHIP II is used following manufacturers recommended protocols.
# Analysis is performed using Sequenom analysis software, MassARRAY® Typer Analyzer v4 with a mutation call filter of ≧8%, Signal:Noise>5 (background), followed by a manual inspections for false positives due to Impurities (ie Salts). Default threshold for positive mutant call is a minimal 10% mutant allele frequency, though signal as low as 3% may be detected. […]
# [5] = test system: relapsed multiple myeloma; details: cited from earlier work
# [6] = test system: relapsed or refractory multiple myeloma; assay: APEX phase 3 trial (039), bortezomib versus high-dose dexamethasone, EBMT response criteria; format: in vivo, human; details: for Complete response / Complete response achieved, number of patients / Median duration of response / One-year survival / complete response plus near-complete response / response rate (complete plus partial response (CR+PR)) / Median time to response: -039 trial; for Median time to response: both groups
# Method: Patients who received dexamethasone were treated for a maximum of 280 days by the following method: received up to four 5-week treatment cycles, followed by up to five 4-week treatment cycles. Within each 5-week treatment cycle, the patient received dexamethasone 40 mg/day PO, once daily on Days 1 to 4, 9 to 12, and 17 to 20 of a 35-day cycle. Within each 4-week treatment cycle, the patient received dexamethasone 40 mg/day PO once daily on Days 1 to 4 of a 28 day cycle.
# The following section presents more detailed information on the -039 trial. During the study, disease response was assessed according to the European Group for Blood and Marrow Transplant (EBMT) criteria as presented in Table 3.
# Response and date of disease progression was determined by computer algorithm that integrated data from a central laboratory and case report forms from each clinical site, according to the Blade criteria (Table 3). […] See Richardson et al., supra.
# Disease progression was determined by Blade criteria as described in Table 3 and above. […] The date of progression was determined by computer algorithm. P-value from log-rank test adjusted by actual randomization factors. See Richardson et al., supra.
# [7] = test system: relapsed and refractory myeloma; details: cited from earlier work
# [8] = NRAS mutant and not t(4; 14), N=32
# [9] = NRAS wild type and not t(4; 14), N=32
# [10] = in this set of patients (pharmacogenomic set)
# [11] = totals (all samples of the 2-by-2 table)
# [12] = bortezomib n = 315, dexamethasone n = 312
# [13] = bortezomib versus dexamethasone
smiles,measurement,setting,value
"CC(C)C[C@H](NC(=O)CNC(=O)c1cc(Cl)ccc1Cl)B1OC(=O)C(CC(=O)O)(CC(=O)O)O1 [Ixazomib citrate, 2,2′-{2-[(1R)-1-({[(2,5dichlorobenzoyl)amino]acetyl}amino)-3-methylbutyl]-5-oxo-1,3,2-dioxaborolane-4,4-diyl}diacetic acid]",anti-tumor activity,[1],has anti-tumor activity
"CC(C)C[C@H](NC(=O)[C@H](Cc1ccccc1)NC(=O)c1cnccn1)B(O)O [bortezomib, N(pyrazine)carbonyl-L-phenylalanine-L-leucine boronic acid]","Non-response, number of patients",[2]; [8],10
same,"Response, number of patients",[2]; [8],0
same,"Non-response, number of patients","[2]; NRAS mutant, n = 40 cohort",10
same,"Response, number of patients","[2]; NRAS mutant, n = 40 cohort",1
same,"Non-response, number of patients",[2]; [9],11
same,"Response, number of patients",[2]; [9],11
same,"Non-response, number of patients","[2]; NRAS wild type, n = 40 cohort",13
same,"Response, number of patients","[2]; NRAS wild type, n = 40 cohort",16
same,"Non-response, number of patients","[2]; Other subtypes, n = 40 cohort",21
same,"Response, number of patients","[2]; Other subtypes, n = 40 cohort",11
same,"Non-response, number of patients","[2]; t(4; 14), n = 40 cohort",2
same,"Response, number of patients","[2]; t(4; 14), n = 40 cohort",6
same,effect on poor prognosis associated with the t(4;14) translocation,[3],at least partially overcomes the poor prognosis
same,"Non-response, number of patient samples",[4]; KRAS mutant,8
same,"Response, number of patient samples",[4]; KRAS mutant,9
same,"Non-response, number of patient samples",[4]; KRAS wild type,34
same,"Response, number of patient samples",[4]; KRAS wild type,23
same,"Non-response, number of patient samples",[4]; NRAS mutant,14
same,"Response, number of patient samples",[4]; NRAS mutant,1
same,"Non-response, number of patient samples",[4]; NRAS wild type,28
same,"Response, number of patient samples",[4]; NRAS wild type,31
same,CR+PR rate,[4]; [10],32%
same,overall response rate,[4]; [10],42.3%
same,time-to-progression after bortezomib treatment,[4]; patients whose pre-treatment bone marrow tumor samples had NRAS mutations,significantly lower
same,"Non-response, number of patient samples",[4]; [11],42
same,"Response, number of patient samples",[4]; [11],32
same,complete response (CR)+partial response (PR) rate,"[5]; bortezomib 1.0 mg/m^2, Study -024",30%
same,complete response (CR)+partial response (PR) rate,"[5]; bortezomib 1.3 mg/m^2, Study -024",38%
same,Complete response,[6],6%
same,"Complete response achieved, number of patients",[6],20 patients
same,Median duration of response,[6],8 months
same,One-year survival,[6],80%
same,complete response plus near-complete response,[6],13%
same,response rate (complete plus partial response (CR+PR)),[6],38%
same,Median time to response,[6],43 days
same,decrease in risk of death,"[6]; bortezomib group versus dexamethasone, first year after enrollment",41%
same,Best Confirmed Response: CR + PR + MR,[6]; [12],146 (46) n (%)
same,Best Confirmed Response: Complete Response,[6]; [12],20 (6) n (%)
same,Best Confirmed Response: Minor Response,[6]; [12],25 (8) n (%)
same,Best Confirmed Response: Near CR: IF+,[6]; [12],21 (7) n (%)
same,Best Confirmed Response: No Change,[6]; [12],137 (43) n (%)
same,Best Confirmed Response: Not Evaluable,[6]; [12],10 (3) n (%)
same,Best Confirmed Response: Overall Response Rate (CR + PR),[6]; [12],121 (38) n (%)
same,Best Confirmed Response: Progressive Disease,[6]; [12],22 (7) n (%)
same,Best Confirmed Response: SWOG Remission,[6]; [12],46 (15) n (%)
same,Difference (95% CI) in CR + PR + MR,[6]; [13],"0.12 (0.04, 0.19)"
same,Difference (95% CI) in Complete Response,[6]; [13],"0.06 (0.03, 0.09)"
same,Difference (95% CI) in Minor Response,[6]; [13],"−0.09 (−0.14, −0.04)"
same,Difference (95% CI) in Near CR: IF+,[6]; [13],"0.06 (0.03, 0.09)"
same,Difference (95% CI) in No Change,[6]; [13],"−0.04 (−0.12, 0.04)"
same,Difference (95% CI) in Not Evaluable,[6]; [13],"−0.01 (−0.04, 0.02)"
same,Difference (95% CI) in Overall Response Rate (CR + PR),[6]; [13],"0.20 (0.14, 0.27)"
same,Difference (95% CI) in Partial Response,[6]; [13],"0.15 (0.08, 0.21)"
same,Difference (95% CI) in Progressive Disease,[6]; [13],"−0.06 (−0.11, −0.01)"
same,Difference (95% CI) in SWOG Remission,[6]; [13],"0.09 (0.05, 0.14)"
same,"CR+PR+MR, number of patients","[7]; Study -025, of 193 patients",67 patients
same,"CR+PR, number of patients","[7]; Study -025, of 193 patients",53 patients
same,CR+PR rate to bortezomib alone,[7]; Study -025,27%
same,overall response rate (CR+PR+minimal response (MR)) to bortezomib alone,[7]; Study -025,35%
C[C@@H]1C[C@H]2[C@@H]3CCC4=CC(=O)C=C[C@]4(C)[C@@]3(F)[C@@H](O)C[C@]2(C)[C@@]1(O)C(=O)CO [dexamethasone],"Non-response, number of patient samples",[4]; KRAS mutant,6
same,"Response, number of patient samples",[4]; KRAS mutant,3
same,"Non-response, number of patient samples",[4]; KRAS wild type,14
same,"Response, number of patient samples",[4]; KRAS wild type,8
same,"Non-response, number of patient samples",[4]; NRAS mutant,3
same,"Response, number of patient samples",[4]; NRAS mutant,3
same,"Non-response, number of patient samples",[4]; NRAS wild type,17
same,"Response, number of patient samples",[4]; NRAS wild type,8
same,"Non-response, number of patient samples",[4]; [11],20
same,"Response, number of patient samples",[4]; [11],11
same,Complete response,[6],< 1%
same,"Complete response achieved, number of patients",[6],2 patients
same,Median duration of response,[6],5.6 months
same,One-year survival,[6],66%
same,complete response plus near-complete response,[6],2%
same,response rate (complete plus partial response (CR+PR)),[6],18%
same,Median time to response,[6],43 days
same,Best Confirmed Response: CR + PR + MR,[6]; [12],108 (35) n (%)
same,Best Confirmed Response: Complete Response,[6]; [12],2 (<1) n (%)
same,Best Confirmed Response: Minor Response,[6]; [12],52 (17) n (%)
same,Best Confirmed Response: Near CR: IF+,[6]; [12],3 (<1) n (%)
same,Best Confirmed Response: No Change,[6]; [12],149 (48) n (%)
same,Best Confirmed Response: Not Evaluable,[6]; [12],14 (4) n (%)
same,Best Confirmed Response: Overall Response Rate (CR + PR),[6]; [12],56 (18) n (%)
same,Best Confirmed Response: Partial Response,[6]; [12],54 (17) n (%)
same,Best Confirmed Response: Progressive Disease,[6]; [12],41 (13) n (%)
same,Best Confirmed Response: SWOG Remission,[6]; [12],17 (5) n (%)
